Results from PubChem BioAssay (NCI).
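How tested: cells in 96-well plates exposed to compound for 48 hours at five concentrations. Abbreviation: GI50, concentration required for 50% inhibition of growth. At the TGI there is no net growth.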

Legend:
Experiment in all cases: NCI-60 cell line screen, 48 h
SR leukemia = test system: SR leukemia
SF-539 CNS = test system: SF-539 CNS
SF-295 CNS = test system: SF-295 CNS
OVCAR-5 ovarian = test system: OVCAR-5 ovarian
OVCAR-4 ovarian = test system: OVCAR-4 ovarian
RXF 393 renal = test system: RXF 393 renal
K-562 leukemia = test system: K-562 leukemia
CCRF-CEM leukemia = test system: CCRF-CEM leukemia
NCI-H23 lung = test system: NCI-H23 lung
NCI-H460 lung = test system: NCI-H460 lung
SK-MEL-5 melanoma = test system: SK-MEL-5 melanoma
BT-549 breast = test system: BT-549 breast
HT29 colon = test system: HT29 colon
SNB-75 CNS = test system: SNB-75 CNS
NCI/ADR-RES ovarian = test system: NCI/ADR-RES ovarian
HOP-92 NSCLC = test system: HOP-92 NSCLC
SNB-19 CNS = test system: SNB-19 CNS
UACC-62 melanoma = test system: UACC-62 melanoma
A498 renal = test system: A498 renal
UACC-257 melanoma = test system: UACC-257 melanoma
ACHN renal = test system: ACHN renal
CAKI-1 renal = test system: CAKI-1 renal
786-0 renal = test system: 786-0 renal
OVCAR-3 ovarian = test system: OVCAR-3 ovarian
HS 578T breast = test system: HS 578T breast
COLO 205 colon = test system: COLO 205 colon
MALME-3M melanoma = test system: MALME-3M melanoma
HL-60(TB) leukemia = test system: HL-60(TB) leukemia
T-47D breast = test system: T-47D breast
SF-268 CNS = test system: SF-268 CNS
NCI-H226 lung = test system: NCI-H226 lung
HCT-15 colon = test system: HCT-15 colon
MDA-MB-231 breast = test system: MDA-MB-231 breast
EKVX NSCLC = test system: EKVX NSCLC
SW-620 colon = test system: SW-620 colon
LOX IMVI melanoma = test system: LOX IMVI melanoma
U251 CNS = test system: U251 CNS
PC-3 prostate = test system: PC-3 prostate
TK-10 renal = test system: TK-10 renal
KM12 colon = test system: KM12 colon
DU-145 prostate = test system: DU-145 prostate
SK-OV-3 ovarian = test system: SK-OV-3 ovarian
HOP-62 NSCLC = test system: HOP-62 NSCLC
MOLT-4 leukemia = test system: MOLT-4 leukemia
SN12C renal = test system: SN12C renal
OVCAR-8 ovarian = test system: OVCAR-8 ovarian
HCC-2998 colon = test system: HCC-2998 colon
A549 NSCLC = test system: A549 NSCLC
UO-31 renal = test system: UO-31 renal
SK-MEL-28 melanoma = test system: SK-MEL-28 melanoma
MDA-MB-435 = test system: MDA-MB-435
MCF7 breast = test system: MCF7 breast
IGROV1 ovarian = test system: IGROV1 ovarian
HCT-116 colon = test system: HCT-116 colon
SK-MEL-2 melanoma = test system: SK-MEL-2 melanoma

## CN(C)S(=O)(=O)c1ccc(-c2nc(C(Cl)Cl)nc3cc(-c4ccc(F)cc4)nn23)cc1
SR leukemia
  GI50: 320 nM
  TGI: > 100 µM
SF-539 CNS
  GI50: 2150 nM
  TGI: 7.55 µM
SF-295 CNS
  GI50: 1770 nM
  TGI: 6.66 µM
OVCAR-5 ovarian
  GI50: 2230 nM
  TGI: 7.89 µM
OVCAR-4 ovarian
  GI50: 2400 nM
  TGI: 8.14 µM
RXF 393 renal
  GI50: 1400 nM
  TGI: 3.87 µM
K-562 leukemia
  GI50: 929 nM
  TGI: > 100 µM
CCRF-CEM leukemia
  GI50: 1870 nM
  TGI: > 100 µM
NCI-H23 lung
  GI50: 1450 nM
  TGI: 3.4 µM
NCI-H460 lung
  GI50: 1680 nM
  TGI: 4.32 µM
SK-MEL-5 melanoma
  GI50: 1970 nM
  TGI: 4.22 µM
BT-549 breast
  GI50: 2290 nM
  TGI: 9.99 µM
HT29 colon
  GI50: 494 nM
  TGI: 2150 nM
SNB-75 CNS
  GI50: 5.37 µM
  TGI: 56.4 µM
NCI/ADR-RES ovarian
  GI50: 1010 nM
  TGI: 4.66 µM
HOP-92 NSCLC
  GI50: 1790 nM
  TGI: 5.75 µM
SNB-19 CNS
  GI50: 2280 nM
  TGI: 10.9 µM
UACC-62 melanoma
  GI50: 1300 nM
  TGI: 2940 nM
A498 renal
  GI50: 1760 nM
  TGI: 8.32 µM
UACC-257 melanoma
  GI50: 3.15 µM
  TGI: 16.6 µM
ACHN renal
  GI50: 925 nM
  TGI: 3.61 µM
CAKI-1 renal
  GI50: 1530 nM
  TGI: 4.71 µM
786-0 renal
  GI50: 9.42 µM
  TGI: > 100 µM
OVCAR-3 ovarian
  GI50: 1670 nM
  TGI: 4.01 µM
HS 578T breast
  GI50: 2630 nM
  TGI: 7.33 µM
COLO 205 colon
  GI50: 1620 nM
  TGI: 4.23 µM
MALME-3M melanoma
  GI50: 1860 nM
  TGI: 4.05 µM
HL-60(TB) leukemia
  GI50: 1300 nM
  TGI: > 100 µM
T-47D breast
  GI50: 3.7 µM
  TGI: 56.9 µM
SF-268 CNS
  GI50: 2580 nM
  TGI: 11.1 µM
NCI-H226 lung
  GI50: 2770 nM
  TGI: 25.6 µM
HCT-15 colon
  GI50: 1130 nM
  TGI: 5.08 µM
MDA-MB-231 breast
  GI50: 1750 nM
  TGI: 6.28 µM
EKVX NSCLC
  GI50: 1940 nM
  TGI: 5 µM
SW-620 colon
  GI50: 891 nM
  TGI: 3.31 µM
LOX IMVI melanoma
  GI50: 1150 nM
  TGI: 6.36 µM
U251 CNS
  GI50: 1050 nM
  TGI: 2980 nM
PC-3 prostate
  GI50: 2250 nM
  TGI: 8.56 µM
TK-10 renal
  GI50: 3.11 µM
  TGI: 13.1 µM
KM12 colon
  GI50: 1560 nM
  TGI: 4.88 µM
DU-145 prostate
  GI50: 1590 nM
  TGI: 6.27 µM
SK-OV-3 ovarian
  GI50: 2150 nM
  TGI: 7.79 µM
HOP-62 NSCLC
  GI50: 2080 nM
  TGI: 8.37 µM
MOLT-4 leukemia
  GI50: 888 nM
  TGI: > 100 µM
SN12C renal
  GI50: 2180 nM
  TGI: 27.7 µM
OVCAR-8 ovarian
  GI50: 1740 nM
  TGI: 7.58 µM
HCC-2998 colon
  GI50: 1430 nM
  TGI: 2920 nM
A549 NSCLC
  GI50: 1880 nM
  TGI: 5.7 µM
UO-31 renal
  GI50: 2140 nM
  TGI: 7.26 µM
SK-MEL-28 melanoma
  GI50: 2010 nM
  TGI: 5.4 µM
MDA-MB-435
  GI50: 1320 nM
  TGI: 3.12 µM
MCF7 breast
  GI50: 2460 nM
  TGI: > 100 µM
IGROV1 ovarian
  GI50: 1440 nM
  TGI: 4.65 µM
HCT-116 colon
  GI50: 986 nM
  TGI: 3.22 µM
SK-MEL-2 melanoma
  GI50: 2890 nM
  TGI: 9.35 µM
